Test results published in patent publication US20220380341A1, “INHIBITORS OF HIV-1 NEF FOR THE TREATMENT OF HIV DISEASE” (priority 2018, published 2022).
pKd: −log10 of the molar value. Read-outs that look alike come from different tables or passages of the source.

Tests used:
HIV-1 NefNL4-3 = HIV-1 NefNL4-3 (Human immunodeficiency virus type 1 group M subtype B, UniProt P03406, A33V/T15A/T51N/V11I); assay: Surface plasmon resonance binding to recombinant full-length Nef (NL4-3); settings: for RU30/RUNef (extent of binding): response units at 30 μM relative to Nef immobilized on the SPR chip
HIV-1NL4-3 = assay: HIV-1 infectivity assay in TZM-bl reporter cell line (LTR-luciferase, 48 h); type: cell-based; settings: Human immunodeficiency virus 1, TZM-bl
Method: (§1) In particular, the tables show antiretroviral activity as percent inhibition of HIV-1 infectivity at 1 μM. In brief, this assay uses the TZM-bl reporter cell line, which carries a stable copy of the HIV-1 LTR coupled to luciferase. Cells are infected with HIV-1NL4-3 in the presence and absence of each compound, and luciferase activity is measured 48 h later. This assay measures early events in the HIV-1 life cycle, including viral entry, reverse transcription, nuclear entry and integration, and viral transcription. All assays include control cells infected with Nef-defective HIV-1, which replicates at 30-50% of wild-type in this system. Results are normalized to percent inhibition relative to DMSO-treated control cells infected with wild-type HIV-1 (0% inhibition) and DMSO-treated cells infected with Nef-defective HIV-1 (100% of the Nef-dependent effect)—see column 3. In addition, cell viability is measured in the TZM-bl cell line in the presence of each test compound and in the absence of HIV-1 infection, using the Cell Titer Blue cell viability assay (Promega; column 4).

TZM-bl cell line = type: cell-based; settings: human, 1 μM
Method: as §1

[1] = KD, M, Table 4, SPR fit 1:1 Langmuir, KD = koff/kon
[2] = Table 4, 1:1 Langmuir fit, T = 1/koff
[3] = 1.0 μM, TZM-bl reporter cell line, Table 4, read-out: % Infectivity Inhibition
[4] = 48 h, Table 1, TZM-bl cells, 1 μM, 48 h, 100% = Nef-defective HIV-1, read-out: HIV-1 Infectivity % Inhibition Norm. to Δ-Nef @ 1 μM

Compound	pKd (HIV-1 NefNL4-3)	pKd (HIV-1 NefNL4-3; [1])	T, minutes (residence time) (HIV-1 NefNL4-3; [2])	RU30/RUNef (extent of binding) (HIV-1 NefNL4-3) [E- 03]	inhibition at 1 µM (HIV-1NL4-3; [3]) [%]	inhibition at 1 µM (HIV-1NL4-3; [4]) [%]	% Cell Viability (TZM-bl cell line) [%]	Percent Viability @ 1 μM (TZM-bl cells) (TZM-bl cell line) [%]	pKd (HIV-1 NefNL4-3; KD, M, Table 4, SPR fit 2-step induced fit, KD = koff/kon × koff2/(koff2 + kon2))	pKd (HIV-1 NefNL4-3; Nef NL4-3 Binding, SPR 1:1 or 2-site fitting KD2, Table 1, 2-site fit, second component)	pKd (HIV-1 NefNL4-3; Nef NL4-3 Binding, SPR 2-state fitting KD, Table 1, 2-step induced-fit model)	T, minutes (residence time) (HIV-1 NefNL4-3; Table 4, 2-step induced fit, T = 1/koff2) [E + 00 minutes]
CC(C)(O)C(=O)N1CCC(Cc2nn(-c3nc4ccccc4[nH]3)c(O)c2CCc2ccc(F)cc2)CC1 [Compound I-777, 1-(4-{[1-(1H-1,3-benzodiazol-2-yl)-4-[2-(4-fluorophenyl)ethyl]-5-hydroxy-1H-pyrazol-3-yl]methyl}piperidin-1-yl)-2-hydroxy-2-methylpropan-1-one]	6.00	6.00	3.50E + 00 minutes	2.23	0	-3.6	97.0	97.0				
COC(=O)N1CCC(CCc2c(-c3ccc(C(F)(F)F)cn3)nn(-c3nc4cc(Br)ccc4[nH]3)c2O)CC1 [Compound I-708, methyl 4-{2-[1-(5-bromo-1H-1,3-benzodiazol-2-yl)-5-hydroxy-3-[5-(trifluoromethyl)pyridin-2-yl]-1H-pyrazol-4-yl]ethyl}piperidine-1-carboxylate]	8.85	8.85	1.00E + 04 minutes	2.04	100	117	77.8	77.8				
O=C(Cc1ccncc1)N1CCCC1c1nn(-c2nc3ccccc3[nH]2)c(O)c1CCc1ccc(F)cc1 (stereo not drawn) [Compound I-760, 1-{2-[1-(1H-1,3-benzodiazol-2-yl)-4-[2-(4-fluorophenyl)ethyl]-5-hydroxy-1H-pyrazol-3-yl]pyrrolidin-1-yl}-2-(pyridin-4-yl)ethan-1-one]	6.11	6.11	7.31E + 00 minutes	1.38	46.5	46.5	96.8	96.8				
COc1cccc(-c2nn(-c3nc4ccccc4[nH]3)c(O)c2CCc2ccc(F)cc2)n1 [Compound I-138, 1-(1H-1,3-benzodiazol-2-yl)-4-[2-(4-fluorophenyl)ethyl]-3-(6-methoxypyridin-2-yl)-1H-pyrazol-5-ol]	5.40					48.2		95.8				
Oc1c(CCc2ccc(F)cc2)c(C2CCN(CC(F)(F)F)CC2)nn1-c1nc2ccccc2[nH]1 [Compound I-1003, 1-(1H-1,3-benzodiazol-2-yl)-4-[2-(4-fluorophenyl)ethyl]-3-[1-(2,2,2-trifluoroethyl)piperidin-4-yl]-1H-pyrazol-5-ol]	5.74					42.3		100.9				
O=S(=O)(C1CCCC1)N1CCC(c2nn(-c3nc4ccccc4[nH]3)c(O)c2CCc2ccc(F)cc2)CC1 [Compound I-753, 1-(1H-1,3-benzodiazol-2-yl)-3-[1-(cyclopentanesulfonyl)piperidin-4-yl]-4-[2-(4-fluorophenyl)ethyl]-1H-pyrazol-5-ol]	7.69					76.5		95.8				
Oc1c(CCC2CCOCC2)c(-c2cccc(F)c2)nn1-c1nc2ccccc2[nH]1 [Compound I-150, 1-(1H-1,3-benzodiazol-2-yl)-3-(3-fluorophenyl)-4-[2-(oxan-4-yl)ethyl]-1H-pyrazol-5-ol]				4.75	53.9	53.9	77.7	77.7	5.97	4.98	5.97	9.69
